Target: T1, human Cereblon WT GST-tagged protein (Homo sapiens, UniProt Q96SW2)
T1 construct: purchased CISBIO 64BDCRBNPEH
Test: CRBN binding, HTRF CEREBLON BINDING kit
Conditions: CRBN binding, HTRF CEREBLON BINDING kit
Summary of the method: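 Binding inhibition was calculated from the 665/620 nm emission ratios, with blank wells and solvent wells as references. Test compounds competed for GST-tagged human Cereblon WT against a Thalidomide-Re reagent paired with GST Eu antibody. Plates were sealed and held at room temperature for 3 hours before the HTRF read.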

T1 sequence (Q96SW2 whole entry): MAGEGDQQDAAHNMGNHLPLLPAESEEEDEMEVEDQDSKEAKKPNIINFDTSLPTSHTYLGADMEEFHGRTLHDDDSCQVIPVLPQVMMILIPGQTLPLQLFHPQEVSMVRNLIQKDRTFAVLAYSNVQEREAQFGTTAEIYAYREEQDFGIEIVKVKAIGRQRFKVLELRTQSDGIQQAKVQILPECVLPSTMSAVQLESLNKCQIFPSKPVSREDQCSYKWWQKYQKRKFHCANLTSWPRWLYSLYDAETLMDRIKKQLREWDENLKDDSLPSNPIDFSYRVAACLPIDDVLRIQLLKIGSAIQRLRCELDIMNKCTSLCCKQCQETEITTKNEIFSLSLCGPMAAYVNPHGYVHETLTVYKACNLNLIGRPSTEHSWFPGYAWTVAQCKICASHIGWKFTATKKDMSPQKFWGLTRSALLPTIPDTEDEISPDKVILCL

Compound	IC50 [nM]
COc1cc2nn(C3CCN(Cc4cccc(NC5CCC(=O)NC5=O)c4)CC3)cc2cc1NC(=O)c1cccc(C(F)(F)F)n1 (centres unmarked) [GT-04763, N-(2-(1-(3-((2,6-dioxopiperidin-3-yl)amino)benzyl)piperidin-4-yl)-6-methoxy-2H-indazol-5-yl)-6-(trifluoromethyl)picolinamide]	500 to 1000
O=C1CCN(c2ccc(CN3CCC(N4CCN(c5ccc(-c6cc(F)c7c(c6)C(=O)N(C(C(=O)Nc6nccs6)c6ncn8c6CCC8)C7)cc5)CC4)CC3)nc2)C(=O)N1 (centres unmarked) [GT-06329, 2-(6,7-dihydro-5H-pyrrolo[1,2-c]imidazol-1-yl)-2-(6-(4-(4-(1-((5-(2,4-dioxotetrahydropyrimidin-1(2H)-yl)pyridin-2-yl)methyl)piperidin-4-yl)piperazin-1-yl)phenyl)-4-fluoro-1-oxoisoindolin-2-yl)-N-(thiazol-2-yl)acetamide]	1000 to 1900
CCc1cc2c(cc1N1CCN(Cc3ccc(N4CCC(=O)NC4=O)cc3)CC1)C(C)(C)c1[nH]c3cc(C#N)ccc3c1C2=O [GT-07324, 8-(4-(4-(2,4-dioxotetrahydropyrimidin-1(2H)-yl)benzyl)piperazin-1-yl)-9-ethyl-6,6-dimethyl-11-oxo-6,11-dihydro-5H-benzo[b]carbazole-3-carbonitrile]	1000 to 1900
COc1cc(N2CCN(Cc3cncc(N4CCC(=O)NC4=O)c3)CC2)ccc1Nc1ncc(Cl)c(Nc2ccccc2P(C)(C)=O)n1 [GT-07709, 1-(5-((4-(4-((5-chloro-4-((2-(dimethylphosphoryl)phenyl)amino)pyrimidin-2-yl)amino)-3-methoxyphenyl)piperazin-1-yl)methyl)pyridin-3-yl)dihydropyrimidine-2,4(1H,3H)-dione]	500 to 1000
COc1cc(N2CCN(Cc3ccc(N4CCC(=O)NC4=O)c(F)c3)CC2)ccc1Nc1ncc(Cl)c(Nc2ccccc2P(C)(C)=O)n1 [GT-07346, 1-(4-((4-(4-((5-chloro-4-((2-(dimethylphosphoryl)phenyl)amino)pyrimidin-2-yl)amino)-3-methoxyphenyl)piperazin-1-yl)methyl)-2-fluorophenyl)dihydropyrimidine-2,4(1H,3H)-dione]	1000 to 1900
O=C1CCC(c2ccc(CN3CCC(n4cc(NC(=O)c5cnn6ccc(N7C[C@H]8C[C@@H]7CO8)nc56)c(C(F)F)n4)CC3)cc2)C(=O)N1 (stereo partly drawn) [GT-05050, 5-((1R,4R)-2-oxa-5-azabicyclo[2.2.1]heptan-5-yl)-N-(3-(difluoromethyl)-1-(1-(4-(2,6-dioxopiperidin-3-yl)benzyl)piperidin-4-yl)-1H-pyrazol-4-yl)pyrazolo[1,5-a]pyrimidine-3-carboxamide]	< 500
COc1cc(N2CCC(N(C)Cc3cccc(N4CCC(=O)NC4=O)c3)CC2)ccc1Nc1ncc(Cl)c(Nc2ccccc2P(C)(C)=O)n1 [GT-07616, 1-(3-(((1-(4-((5-chloro-4-((2-(dimethylphosphoryl)phenyl)amino)pyrimidin-2-yl)amino)-3-methoxyphenyl)piperidin-4-yl)(methyl)amino)methyl)phenyl)dihydropyrimidine-2,4(1H,3H)-dione]	1000 to 1900
NC(=O)c1ncc(N2CCCCC2)nc1Nc1ccc(C2CCN(Cc3cccc(N4CCC(=O)NC4=O)c3)CC2)cc1 [GT-04787, 3-((4-(1-(3-(2,4-dioxotetrahydropyrimidin-1(2H)-yl)benzyl)piperidin-4-yl)phenyl)amino)-5-(piperidin-1-yl)pyrazine-2-carboxamide]	500 to 1000
CCc1cc2c(cc1N1CCC(N3CCN(Cc4cncc(N5CCC(=O)NC5=O)c4)CC3)CC1)C(C)(C)c1[nH]c3cc(C#N)ccc3c1C2=O [GT-07702, 8-(4-(4-((5-(2,4-dioxotetrahydropyrimidin-1(2H)-yl)pyridin-3-yl)methyl)piperazin-1-yl)piperidin-1-yl)-9-ethyl-6,6-dimethyl-11-oxo-6,11-dihydro-5H-benzo[b]carbazole-3-carbonitrile]	< 500
COc1cc(N2CCC(N(C)Cc3cncc(N4CCC(=O)NC4=O)c3)CC2)ccc1Nc1ncc(Cl)c(Nc2ccccc2P(C)(C)=O)n1 [GT-07695, 1-(5-(((1-(4-((5-chloro-4-((2-(dimethylphosphoryl)phenyl)amino)pyrimidin-2-yl)amino)-3-methoxyphenyl)piperidin-4-yl)(methyl)amino)methyl)pyridin-3-yl)dihydropyrimidine-2,4(1H,3H)-dione]	1000 to 1900
COc1cc(N2CCC(N3CCN(Cc4cncc(C5CCC(=O)NC5=O)c4)CC3)CC2)ccc1Nc1ncc(Cl)c(Nc2ccccc2P(C)(C)=O)n1 (centres unmarked) [GT-07614, 3-(5-((4-(1-(4-((5-chloro-4-((2-(dimethylphosphoryl)phenyl)amino)pyrimidin-2-yl)amino)-3-methoxyphenyl)piperidin-4-yl)piperazin-1-yl)methyl)pyridin-3-yl)piperidine-2,6-dione]	1000 to 1900
COc1cc(N2CCC(N3CCN(Cc4cccc(NC5CCC(=O)NC5=O)c4)CC3)CC2)ccc1Nc1ncc(Cl)c(Nc2ccccc2P(C)(C)=O)n1 (centres unmarked) [GT-07605, 3-((3-((4-(1-(4-((5-chloro-4-((2-(dimethylphosphoryl)phenyl)amino)pyrimidin-2-yl)amino)-3-methoxyphenyl)piperidin-4-yl)piperazin-1-yl)methyl)phenyl)amino)piperidine-2,6-dione]	1000 to 1900
CCc1cc2c(cc1N1CCC(N3CCN(Cc4cccc(N5CCC(=O)NC5=O)c4)CC3)CC1)C(C)(C)c1[nH]c3cc(C#N)ccc3c1C2=O [GT-07310, 8-(4-(4-(3-(2,4-dioxotetrahydropyrimidin-1(2H)-yl)benzyl)piperazin-1-yl)piperidin-1-yl)-9-ethyl-6,6-dimethyl-11-oxo-6,11-dihydro-5H-benzo[b]carbazole-3-carbonitrile]	500 to 1000
COc1cc2nn(C3CCN(Cc4ccc(C5CCC(=O)NC5=O)c(F)c4)CC3)cc2cc1NC(=O)c1cccc(C(F)(F)F)n1 (centres unmarked) [GT-04762, N-(2-(1-(4-(2,6-dioxopiperidin-3-yl)-3-fluorobenzyl)piperidin-4-yl)-6-methoxy-2H-indazol-5-yl)-6-(trifluoromethyl)picolinamide]	1000 to 1900
O=C1CCN(c2ccc(CN3CCN(c4ccc(-c5cc(F)c6c(c5)C(=O)N(C(C(=O)Nc5nccs5)c5ncn7c5CCC7)C6)cc4)CC3)nc2)C(=O)N1 (centres unmarked) [GT-06229, 2-(6,7-dihydro-5H-pyrrolo[1,2-c]imidazol-1-yl)-2-(6-(4-(4-((5-(2,4-dioxotetrahydropyrimidin-1(2H)-yl)pyridin-2-yl)methyl)piperazin-1-yl)phenyl)-4-fluoro-1-oxoisoindolin-2-yl)-N-(thiazol-2-yl)acetamide]	500 to 1000
CCc1cc2c(cc1N1CCC(N3CCN(Cc4ccc(N5CCC(=O)NC5=O)cc4)CC3)CC1)C(C)(C)c1[nH]c3cc(C#N)ccc3c1C2=O [GT-07307, 8-(4-(4-(4-(2,4-dioxotetrahydropyrimidin-1(2H)-yl)benzyl)piperazin-1-yl)piperidin-1-yl)-9-ethyl-6,6-dimethyl-11-oxo-6,11-dihydro-5H-benzo[b]carbazole-3-carbonitrile]	500 to 1000
CN(C)C(=O)c1cc2cnc(Nc3ccc(N4CCN(Cc5cccc(N6CCC(=O)NC6=O)c5)CC4)cn3)nc2n1C1CCCC1 [GT-06341, 7-cyclopentyl-2-((5-(4-(3-(2,4-dioxotetrahydropyrimidin-1(2H)-yl)benzyl)piperazin-1-yl)pyridin-2-yl)amino)-N,N-dimethyl-7H-pyrrolo[2,3-d]pyrimidine-6-carboxamide]	500 to 1000
